Data taken from the NIST ThermoML archive (doi:10.1021/je200637v).
± gives the expanded uncertainty stated by the source.

Test: activity coefficient (dimensionless); of the first substance listed, at infinite dilution; xn = mol fraction of the nth substance listed
Details: Liquid, Chromatography, x1 = 0

Structure (SMILES)	activity coefficient (322.85 K)	activity coefficient (332.65 K)	activity coefficient (343.15 K)
Cc1ccccc1C [1,2-dimethylbenzene] + CCCCCCCCCC[N+](C)(C)C.O=S(=O)([N-]S(=O)(=O)C(F)(F)F)C(F)(F)F	1.03 ± 0.03	1.07 ± 0.03	1.07 ± 0.03
Cc1ccccc1C [1,2-dimethylbenzene] + CCCCCCCC[N+](C)(C)C.O=S(=O)([N-]S(=O)(=O)C(F)(F)F)C(F)(F)F	1.24 ± 0.04	1.26 ± 0.04	1.25 ± 0.04
Cc1ccccc1C [1,2-dimethylbenzene] + CCCCCCCC[N+](CCCCCCCC)(CCCCCCCC)CCCCCCCC.O=S(=O)([N-]S(=O)(=O)C(F)(F)F)C(F)(F)F	–	0.57 ± 0.03	0.58 ± 0.03
Cc1ccccc1C [1,2-dimethylbenzene] + CCCC[N+](C)(CCCC)CCCC.O=S(=O)([N-]S(=O)(=O)C(F)(F)F)C(F)(F)F	1.38 ± 0.05	1.46 ± 0.06	1.46 ± 0.06
Cc1cccc(C)c1 [1,3-dimethylbenzene] + CCCCCCCCCC[N+](C)(C)C.O=S(=O)([N-]S(=O)(=O)C(F)(F)F)C(F)(F)F	1.11 ± 0.03	1.14 ± 0.03	1.11 ± 0.03
Cc1cccc(C)c1 [1,3-dimethylbenzene] + CCCCCCCC[N+](C)(C)C.O=S(=O)([N-]S(=O)(=O)C(F)(F)F)C(F)(F)F	1.39 ± 0.05	1.39 ± 0.05	1.38 ± 0.05
Cc1cccc(C)c1 [1,3-dimethylbenzene] + CCCCCCCC[N+](CCCCCCCC)(CCCCCCCC)CCCCCCCC.O=S(=O)([N-]S(=O)(=O)C(F)(F)F)C(F)(F)F	–	0.6 ± 0.03	0.62 ± 0.03
Cc1cccc(C)c1 [1,3-dimethylbenzene] + CCCC[N+](C)(CCCC)CCCC.O=S(=O)([N-]S(=O)(=O)C(F)(F)F)C(F)(F)F	1.49 ± 0.06	1.56 ± 0.06	1.56 ± 0.06
Cc1ccc(C)cc1 [1,4-dimethylbenzene] + CCCCCCCCCC[N+](C)(C)C.O=S(=O)([N-]S(=O)(=O)C(F)(F)F)C(F)(F)F	1.12 ± 0.03	1.15 ± 0.04	1.13 ± 0.03
Cc1ccc(C)cc1 [1,4-dimethylbenzene] + CCCCCCCC[N+](C)(C)C.O=S(=O)([N-]S(=O)(=O)C(F)(F)F)C(F)(F)F	1.38 ± 0.05	1.39 ± 0.05	1.37 ± 0.05
Cc1ccc(C)cc1 [1,4-dimethylbenzene] + CCCCCCCC[N+](CCCCCCCC)(CCCCCCCC)CCCCCCCC.O=S(=O)([N-]S(=O)(=O)C(F)(F)F)C(F)(F)F	–	0.6 ± 0.03	0.62 ± 0.03
Cc1ccc(C)cc1 [1,4-dimethylbenzene] + CCCC[N+](C)(CCCC)CCCC.O=S(=O)([N-]S(=O)(=O)C(F)(F)F)C(F)(F)F	1.51 ± 0.06	1.62 ± 0.07	1.56 ± 0.06
C1COCCO1 [1,4-dioxane] + CCCCCCCCCC[N+](C)(C)C.O=S(=O)([N-]S(=O)(=O)C(F)(F)F)C(F)(F)F	0.56 ± 0.03	0.57 ± 0.03	0.57 ± 0.03
C1COCCO1 [1,4-dioxane] + CCCCCCCC[N+](C)(C)C.O=S(=O)([N-]S(=O)(=O)C(F)(F)F)C(F)(F)F	0.62 ± 0.03	0.62 ± 0.03	0.61 ± 0.03
C1COCCO1 [1,4-dioxane] + CCCCCCCC[N+](CCCCCCCC)(CCCCCCCC)CCCCCCCC.O=S(=O)([N-]S(=O)(=O)C(F)(F)F)C(F)(F)F	0.47 ± 0.03	0.47 ± 0.03	0.47 ± 0.03
C1COCCO1 [1,4-dioxane] + CCCC[N+](C)(CCCC)CCCC.O=S(=O)([N-]S(=O)(=O)C(F)(F)F)C(F)(F)F	0.61 ± 0.03	0.67 ± 0.03	0.67 ± 0.03
C#CCCCCC [1-heptyne] + CCCCCCCCCC[N+](C)(C)C.O=S(=O)([N-]S(=O)(=O)C(F)(F)F)C(F)(F)F	1.95 ± 0.09	2.02 ± 0.09	1.97 ± 0.09
C#CCCCCC [1-heptyne] + CCCCCCCC[N+](C)(C)C.O=S(=O)([N-]S(=O)(=O)C(F)(F)F)C(F)(F)F	2.48 ± 0.11	2.46 ± 0.11	2.39 ± 0.11
C#CCCCCC [1-heptyne] + CCCCCCCC[N+](CCCCCCCC)(CCCCCCCC)CCCCCCCC.O=S(=O)([N-]S(=O)(=O)C(F)(F)F)C(F)(F)F	0.84 ± 0.03	0.86 ± 0.03	0.87 ± 0.03
C#CCCCCC [1-heptyne] + CCCC[N+](C)(CCCC)CCCC.O=S(=O)([N-]S(=O)(=O)C(F)(F)F)C(F)(F)F	2.79 ± 0.13	2.89 ± 0.13	2.85 ± 0.13
C#CCCCC [1-hexyne] + CCCCCCCCCC[N+](C)(C)C.O=S(=O)([N-]S(=O)(=O)C(F)(F)F)C(F)(F)F	1.61 ± 0.06	1.63 ± 0.07	1.57 ± 0.06

Structure (SMILES)	activity coefficient (322.85 K)	activity coefficient (332.65 K)	activity coefficient (343.15 K)
C#CCCCC [1-hexyne] + CCCCCCCC[N+](C)(C)C.O=S(=O)([N-]S(=O)(=O)C(F)(F)F)C(F)(F)F	1.92 ± 0.08	1.89 ± 0.08	1.82 ± 0.08
C#CCCCC [1-hexyne] + CCCCCCCC[N+](CCCCCCCC)(CCCCCCCC)CCCCCCCC.O=S(=O)([N-]S(=O)(=O)C(F)(F)F)C(F)(F)F	0.75 ± 0.03	0.76 ± 0.03	0.76 ± 0.03
C#CCCCC [1-hexyne] + CCCC[N+](C)(CCCC)CCCC.O=S(=O)([N-]S(=O)(=O)C(F)(F)F)C(F)(F)F	2.12 ± 0.1	2.24 ± 0.1	2.2 ± 0.1
CCC[N+](=O)[O-] [1-nitropropane] + CCCCCCCCCC[N+](C)(C)C.O=S(=O)([N-]S(=O)(=O)C(F)(F)F)C(F)(F)F	0.59 ± 0.03	0.59 ± 0.03	0.57 ± 0.03
CCC[N+](=O)[O-] [1-nitropropane] + CCCCCCCC[N+](C)(C)C.O=S(=O)([N-]S(=O)(=O)C(F)(F)F)C(F)(F)F	0.62 ± 0.03	0.61 ± 0.03	0.6 ± 0.03
CCC[N+](=O)[O-] [1-nitropropane] + CCCCCCCC[N+](CCCCCCCC)(CCCCCCCC)CCCCCCCC.O=S(=O)([N-]S(=O)(=O)C(F)(F)F)C(F)(F)F	0.48 ± 0.03	0.48 ± 0.03	0.47 ± 0.03
CCC[N+](=O)[O-] [1-nitropropane] + CCCC[N+](C)(CCCC)CCCC.O=S(=O)([N-]S(=O)(=O)C(F)(F)F)C(F)(F)F	0.68 ± 0.03	0.7 ± 0.03	0.68 ± 0.03
OCC(F)(F)F [2,2,2-trifluoroethanol] + CCCCCCCCCC[N+](C)(C)C.O=S(=O)([N-]S(=O)(=O)C(F)(F)F)C(F)(F)F	0.46 ± 0.03	0.44 ± 0.03	0.41 ± 0.03
OCC(F)(F)F [2,2,2-trifluoroethanol] + CCCCCCCC[N+](C)(C)C.O=S(=O)([N-]S(=O)(=O)C(F)(F)F)C(F)(F)F	0.4 ± 0.03	0.38 ± 0.03	0.35 ± 0.04
OCC(F)(F)F [2,2,2-trifluoroethanol] + CCCCCCCC[N+](CCCCCCCC)(CCCCCCCC)CCCCCCCC.O=S(=O)([N-]S(=O)(=O)C(F)(F)F)C(F)(F)F	0.48 ± 0.03	0.37 ± 0.03	0.36 ± 0.04
OCC(F)(F)F [2,2,2-trifluoroethanol] + CCCC[N+](C)(CCCC)CCCC.O=S(=O)([N-]S(=O)(=O)C(F)(F)F)C(F)(F)F	0.5 ± 0.03	0.48 ± 0.03	0.45 ± 0.03
CC(C)CC(C)(C)C [2,2,4-trimethylpentane] + CCCCCCCCCC[N+](C)(C)C.O=S(=O)([N-]S(=O)(=O)C(F)(F)F)C(F)(F)F	5.41 ± 0.25	5.29 ± 0.24	4.92 ± 0.22
CC(C)CC(C)(C)C [2,2,4-trimethylpentane] + CCCCCCCC[N+](C)(C)C.O=S(=O)([N-]S(=O)(=O)C(F)(F)F)C(F)(F)F	8.1 ± 0.37	7.66 ± 0.35	7.14 ± 0.33
CC(C)CC(C)(C)C [2,2,4-trimethylpentane] + CCCCCCCC[N+](CCCCCCCC)(CCCCCCCC)CCCCCCCC.O=S(=O)([N-]S(=O)(=O)C(F)(F)F)C(F)(F)F	1.52 ± 0.06	1.51 ± 0.06	1.5 ± 0.06
CC(C)CC(C)(C)C [2,2,4-trimethylpentane] + CCCC[N+](C)(CCCC)CCCC.O=S(=O)([N-]S(=O)(=O)C(F)(F)F)C(F)(F)F	8.87 ± 0.41	8.91 ± 0.41	8.42 ± 0.39
CC(C)CO [2-methyl-1-propanol] + CCCCCCCCCC[N+](C)(C)C.O=S(=O)([N-]S(=O)(=O)C(F)(F)F)C(F)(F)F	1.59 ± 0.06	1.47 ± 0.06	1.31 ± 0.05
CC(C)CO [2-methyl-1-propanol] + CCCCCCCC[N+](C)(C)C.O=S(=O)([N-]S(=O)(=O)C(F)(F)F)C(F)(F)F	1.87 ± 0.08	1.7 ± 0.07	1.51 ± 0.06
CC(C)CO [2-methyl-1-propanol] + CCCCCCCC[N+](CCCCCCCC)(CCCCCCCC)CCCCCCCC.O=S(=O)([N-]S(=O)(=O)C(F)(F)F)C(F)(F)F	1.17 ± 0.04	1.09 ± 0.03	1 ± 0.03
CC(C)CO [2-methyl-1-propanol] + CCCC[N+](C)(CCCC)CCCC.O=S(=O)([N-]S(=O)(=O)C(F)(F)F)C(F)(F)F	1.97 ± 0.09	1.82 ± 0.08	1.64 ± 0.07
CCC(C)CC [3-methylpentane] + CCCCCCCCCC[N+](C)(C)C.O=S(=O)([N-]S(=O)(=O)C(F)(F)F)C(F)(F)F	3.88 ± 0.18	3.78 ± 0.17	3.62 ± 0.16
CCC(C)CC [3-methylpentane] + CCCCCCCC[N+](C)(C)C.O=S(=O)([N-]S(=O)(=O)C(F)(F)F)C(F)(F)F	5.62 ± 0.26	5.24 ± 0.24	4.87 ± 0.22
